Test results reported in PubChem BioAssay (NCI).
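Compound exposure: 48 hours, 5 concentrations, 96-well plates. Here, GI50 denotes the concentration required for 50% inhibition of growth. TGI: total growth inhibition.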

What was measured:
Assay in all cases: inhibition of tumour cell growth, NCI panel, 48 h
MDA-MB-435 = system: MDA-MB-435
HT29 colon = system: HT29 colon
CCRF-CEM leukemia = system: CCRF-CEM leukemia
KM12 colon = system: KM12 colon
UACC-257 melanoma = system: UACC-257 melanoma
M14 melanoma = system: M14 melanoma
SNB-75 CNS = system: SNB-75 CNS
SK-OV-3 ovarian = system: SK-OV-3 ovarian
T-47D breast = system: T-47D breast

| SMILES | TGI (MDA-MB-435) [µM] | GI50 (HT29 colon) [µM] | TGI (HT29 colon) [µM] | TGI (CCRF-CEM leukemia) [µM] | TGI (KM12 colon) [µM] | GI50 (UACC-257 melanoma) [µM] | TGI (UACC-257 melanoma) [µM] | TGI (M14 melanoma) [µM] | GI50 (SNB-75 CNS) [µM] | TGI (SNB-75 CNS) [µM] | TGI (SK-OV-3 ovarian) [µM] | GI50 (T-47D breast) [µM] | TGI (T-47D breast) [µM] | GI50 (SK-OV-3 ovarian) [µM] | GI50 (CCRF-CEM leukemia) [µM] | GI50 (KM12 colon) [µM] | GI50 (M14 melanoma) [µM] | GI50 (MDA-MB-435) [µM] |
| --- | --- | --- | --- | --- | --- | --- | --- | --- | --- | --- | --- | --- | --- | --- | --- | --- | --- | --- |
| COc1cc(C2c3[nH]c4ccccc4c3C[C@H]3COC(=O)N23)cc(OC)c1OC (some centres undefined) | 0.0494 | < 0.01 | > 100 | 0.0789 | 1.68 | < 0.01 | > 100 | 8.97 | < 0.01 | > 100 | – | – | – | – | – | – | – | – |
| CC1CC[C@]2(C(=O)O)CCC3(COC(=O)/C=C\c4ccc(O)cc4)C(=CCC4[C@@]5(C)CC[C@H](O)C(C)(C)C5CC[C@]43C)[C@@H]2[C@H]1C (some centres undefined) | – | – | 35.5 | 81.9 | 25.7 | – | 69.6 | 37.7 | – | 80.9 | 21.6 | – | – | – | – | – | – | – |
| O=C(Nc1ccc(Cl)cc1Cl)C1C(=O)N(c2ccc(Cl)cc2Cl)C(=O)/C1=N\Nc1ccc([N+](=O)[O-])cc1[N+](=O)[O-] (centres undefined) | – | – | > 100 | > 100 | > 100 | – | 98.7 | > 100 | – | 97.7 | > 100 | – | – | – | – | – | – | – |
| CC1CC(C2=CC=CCS2)=Nc2ccccc2S1 (centres undefined) | – | – | – | > 100 | > 100 | – | > 100 | > 100 | – | 78.6 | > 100 | – | – | – | – | – | – | – |
| CCN(CC)CCOCC[C@H]1CC[C@H]2[C@@H]3[C@H](C)Cc4cc(OS(N)(=O)=O)ccc4[C@H]3CC[C@]12C | – | 0.244 | 1.03 | 4.34 | 2.55 | 1.74 | 3.34 | 2.59 | 1.24 | 3.13 | 3.2 | 0.277 | 2.94 | 1.49 | 1.14 | 1.25 | 1.26 | – |
| O=C1c2ccccc2-c2c1c1ccccc1c(=O)n2CCCCNCCCn1c2c(c3ccccc3c1=O)C(=O)c1ccccc1-2 | 4.32 | 0.0929 | 8.95 | – | 2.45 | 3.23 | 13.8 | 4.18 | 6.45 | 28.3 | 50 | 1.32 | 4.86 | 5.35 | – | 0.31 | 0.76 | 0.851 |
| Cc1ccc(S(=O)(=O)N[C@H](C(=O)O)c2ccccc2)cc1 | – | – | > 100 | > 100 | > 100 | – | > 100 | > 100 | – | > 100 | > 100 | – | – | – | – | – | – | – |
| O=C(Nc1ccccc1-c1n[nH]c(=S)[nH]c1=O)C(F)(F)F | – | – | > 100 | > 100 | > 100 | – | – | > 100 | – | > 100 | > 100 | – | – | – | – | – | – | – |
| Cc1c(N2CCCC2)cc2c(c1NC(=O)c1ccccc1Cl)C(C)(C)CC2(C)C | 27.9 | – | 29.4 | – | 30.3 | – | 24.1 | 26.8 | – | 28.9 | 27.2 | – | 24.6 | – | – | – | – | – |
| ON/N=C/c1cc2c(cc1Br)OCO2 | – | – | > 386 | > 386 | > 386 | – | > 386 | – | – | – | > 386 | – | – | – | – | – | – | – |
| NC1=NC(=O)/C(=C/c2ccccc2[N+](=O)[O-])C(N)=N1 | – | – | > 100 | > 100 | > 100 | – | > 100 | > 100 | – | > 100 | > 100 | – | – | – | – | – | – | – |
| O=C1C(Cl)=C(Nc2cccc(Cl)c2)C(=O)N1Cc1ccccc1 | 7.17 | – | – | > 100 | 26.9 | – | – | 22.5 | – | – | 35 | 33.8 | > 100 | 15.7 | 2.39 | 11.5 | 6.73 | 2.26 |
| O=C(Nc1c(O)[nH]c(=S)[nH]c1=O)c1ccccc1F | – | – | > 100 | > 100 | > 100 | – | > 100 | > 100 | – | > 100 | > 100 | – | – | – | – | – | – | – |
| CC(C)(C)OC1=C(OC(C)(C)C)C(O)(c2ccccc2)C1=O (centres undefined) | – | – | > 100 | > 100 | > 100 | – | – | > 100 | – | > 100 | > 100 | – | – | – | – | – | – | – |
| COC(=O)C1=C(c2ccc(OC)c(OC)c2)OC(c2ccc(OC)c(OC)c2)C1 (centres undefined) | – | – | > 100 | > 100 | > 100 | – | > 100 | > 100 | – | > 100 | 96.7 | – | – | – | – | – | – | – |
| CN1C(=O)CC(c2cccc(C3CC(=O)N(C)C3=O)n2)C1=O (centres undefined) | – | – | > 100 | > 100 | > 100 | – | > 100 | > 100 | – | > 100 | > 100 | – | – | – | – | – | – | – |
| CC(C)(C)NNC(=O)/C(=C/c1ccc([N+](=O)[O-])cc1)NC(=O)c1ccccc1 | – | – | > 100 | 99.1 | > 100 | – | > 100 | > 100 | – | > 100 | > 100 | – | – | – | – | – | – | – |

| SMILES | TGI (MDA-MB-435) [µM] | GI50 (HT29 colon) [µM] | TGI (HT29 colon) [µM] | TGI (CCRF-CEM leukemia) [µM] | TGI (KM12 colon) [µM] | GI50 (UACC-257 melanoma) [µM] | TGI (UACC-257 melanoma) [µM] | TGI (M14 melanoma) [µM] | GI50 (SNB-75 CNS) [µM] | TGI (SNB-75 CNS) [µM] | TGI (SK-OV-3 ovarian) [µM] | GI50 (T-47D breast) [µM] | TGI (T-47D breast) [µM] | GI50 (SK-OV-3 ovarian) [µM] | GI50 (CCRF-CEM leukemia) [µM] | GI50 (KM12 colon) [µM] | GI50 (M14 melanoma) [µM] | GI50 (MDA-MB-435) [µM] |
| --- | --- | --- | --- | --- | --- | --- | --- | --- | --- | --- | --- | --- | --- | --- | --- | --- | --- | --- |
| CN(C)c1ccc2c(=O)c3ccccc3oc2n1 | – | – | – | > 100 | > 100 | – | > 100 | > 100 | – | > 100 | > 100 | – | – | – | – | – | – | – |
| COc1ccc(C2CC(=O)c3c(O)cc(O)cc3O2)cc1O (centres undefined) | – | – | > 100 | > 100 | > 100 | – | > 100 | > 100 | – | > 100 | > 100 | – | – | – | – | – | – | – |
| Cc1ccccc1NC(=O)C(=O)C(C#N)c1ccc(Cl)cc1 (centres undefined) | – | – | > 100 | > 100 | > 100 | – | > 100 | > 100 | – | > 100 | > 100 | – | – | – | – | – | – | – |
| COc1ccc2oc(=O)cc(C(c3ccc[nH]3)c3ccc[nH]3)c2c1 | 0.485 | 0.104 | 0.659 | 29.9 | 11.3 | 0.468 | 18 | 0.191 | 0.123 | 11.8 | – | 0.118 | 26.6 | – | 0.105 | 0.104 | 0.0837 | 0.208 |
| N#Cc1ccccc1NC(=O)/C(=N\N)C(C(=O)c1ccncc1)C1OC(=O)c2ccccc21 (centres undefined) | – | – | > 100 | > 100 | > 100 | – | > 100 | > 100 | – | – | > 100 | – | – | – | – | – | – | – |
| O=C(O)C/C(=C\c1ccco1)C(=O)O | > 100 | – | > 100 | – | > 100 | – | > 100 | > 100 | – | > 100 | > 100 | – | > 100 | – | – | – | – | – |
| Cc1ccc(S(=O)(=O)c2c(N)c3nc4ccccc4n3c3nc4ccccc4nc23)cc1 | – | – | > 100 | > 100 | > 100 | – | > 100 | > 100 | – | > 100 | > 100 | – | – | – | – | – | – | – |
| N=C(N)c1ccc(OCc2cccc(COc3ccc(C(=N)N)cc3)c2)cc1 | 11.8 | 7.64 | > 100 | – | – | 14.4 | 84.8 | 7.35 | 11.3 | 31.2 | 50.9 | 26.9 | > 100 | 18.4 | – | – | 2.83 | 4.01 |
| O=C1[C@@H]2C(c3ccccc3Br)=NO[C@@H]2C(=O)N1c1ccc(Cc2ccc(N3C(=O)[C@H]4C(c5ccccc5Br)=NO[C@H]4C3=O)cc2)cc1 | – | – | > 100 | > 100 | > 100 | – | > 100 | > 100 | – | > 100 | > 100 | – | – | – | – | – | – | – |
| C[N+](C)(C)CC1CCCC/C1=N\OC(=O)c1ccccc1 (centres undefined) | – | – | > 100 | > 100 | > 100 | – | > 100 | > 100 | – | > 100 | > 100 | – | – | – | – | – | – | – |
| CC(NS(=O)(=O)c1ccc([N+](=O)[O-])cc1)C(=O)O (centres undefined) | – | – | > 100 | > 100 | > 100 | – | > 100 | > 100 | – | > 100 | > 100 | – | – | – | – | – | – | – |
| C/C(CN1C(=O)c2ccccc2C1=O)=N\NS(=O)(=O)c1ccc(C)cc1 | – | – | > 100 | > 100 | > 100 | – | > 100 | > 100 | – | > 100 | > 100 | – | – | – | – | – | – | – |
| CN1N=CSC12C(=O)N(c1ccc(Cl)cc1)C(=O)N2c1ccc(Cl)cc1 (centres undefined) | – | – | 32 | > 100 | 30.3 | – | 33.5 | > 100 | – | 16.5 | 32 | – | – | – | – | – | – | – |
| Cc1nc(-c2cccc(Nc3nc(-c4ccc(Cl)cc4)cs3)c2)cs1 | 27.4 | – | – | – | 20 | 8.76 | 18.1 | 19.6 | – | – | 25.4 | – | – | 11.9 | – | 8.4 | 9.72 | 10.4 |
| COc1cc2c(cc1O)CC[C@@H]1[C@@H]2CC[C@]2(C)[C@@H](NCCN(C)C)CC[C@@H]12 | 0.133 | 0.101 | 0.393 | 0.612 | – | 0.114 | 0.254 | 0.213 | 0.0613 | 0.378 | 0.667 | – | – | 0.194 | 0.156 | – | 0.0822 | 0.0662 |
| CCOC(=O)Nc1cc2nnc(-c3ccccc3)nc2c(N)n1 | – | – | 25.7 | > 100 | > 100 | – | > 100 | > 100 | – | 61.6 | 39.9 | – | – | – | – | – | – | – |
| COc1cc(/C=C/c2ccncc2)cc(OC)c1OC | – | – | > 100 | > 100 | > 100 | – | > 100 | > 100 | – | > 100 | – | – | – | – | – | – | – | – |
